Results: patent US20260008787A1, “FUSED RING KRAS INHIBITORS FOR TREATING DISEASE” (BLOSSOMHILL THERAPEUTICS, INC., priority 2022, published 2026)

Columns and labels:
AGS (G12D) = experiment: Cell proliferation assay (CellTiter-Glo, 72 hours), AGS; format: cell-based; details: 384-well, CellTiter-Glo 2.0
Procedure: (§1) Two thousand KRAS mutant cells per well were seeded in 384-well white plate and then treated with indicated compounds for 72 hours at 37° C. and 5% CO2. Cell proliferation was measured using CellTiter-Glo 2.0 luciferase-based ATP detection assay (Promega, Madison, WI) following the manufacturer's protocol. IC50 values were determined using Prism software (GraphPad Software, San Diego, CA).

GP2D (KRAS G12D) = experiment: Cell proliferation assay (CellTiter-Glo, 72 hours), GP2D; format: cell-based; details: 384-well, CellTiter-Glo 2.0
Procedure: as §1

KRAS G12V = KRAS G12V (Homo sapiens, UniProt P01116, G12V); experiment: biochemical
KRAS G12V, sequence (P01116 1-188 isoform P01116-2 G12V): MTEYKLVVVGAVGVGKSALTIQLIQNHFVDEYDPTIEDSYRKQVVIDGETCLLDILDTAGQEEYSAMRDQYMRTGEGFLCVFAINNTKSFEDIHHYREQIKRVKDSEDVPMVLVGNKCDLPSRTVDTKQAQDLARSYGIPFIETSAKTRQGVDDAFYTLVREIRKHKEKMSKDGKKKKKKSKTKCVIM

KRAS G12D = KRAS G12D (Homo sapiens, UniProt P01116, G12D); experiment: biochemical
KRAS G12D, sequence (P01116 1-188 isoform P01116-2 G12D): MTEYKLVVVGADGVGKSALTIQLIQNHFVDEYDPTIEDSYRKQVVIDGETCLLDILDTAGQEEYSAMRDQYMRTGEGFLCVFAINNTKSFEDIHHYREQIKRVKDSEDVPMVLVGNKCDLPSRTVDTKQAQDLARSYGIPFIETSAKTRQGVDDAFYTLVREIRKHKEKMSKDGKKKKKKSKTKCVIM

SW620 (KRAS G12V) = experiment: Cell proliferation assay (CellTiter-Glo, 72 hours), SW620; format: cell-based; details: 384-well, CellTiter-Glo 2.0
Procedure: as §1

Row | SMILES | IC50 (AGS (G12D); 72 h) | IC50 (GP2D (KRAS G12D)) | IC50 (KRAS G12V) | IC50 (KRAS G12D) | IC50 (SW620 (KRAS G12V); Homo sapiens, SW-620, 72 h) | IC50 (AGS (G12D)) | IC50 (SW620 (KRAS G12V)) | IC50 (GP2D (KRAS G12D); GP2d, 72 h)
1 | Fc1c(-c2c(Cl)ccc3[nH]nc(Cl)c23)nc2c3c(nc(OC[C@@]45CCCN4C[C@H](F)C5)nc13)N1CCCC[C@H]1CO2 (atropisomer, axis not shown) [Example 83, (7S)-12-(3,5-dichloro-1H-indazol-4-yl)-13-fluoro-16-[[(2R,8S)-2-fluoro-1,2,3,5,6,6-4hexahydropyrrolizin-8-yl]methoxy]-9-oxa-2,11,15,17-tetrazatetracyclo[8.7.1.02,7.014,18]octadeca-1 (17),10 (18),11,13,15-pentaene] | > 3000 nM | 1080 nM | 59.3 nM | 60.4 nM | > 3000 nM | – | – | –
2 | Fc1c(-c2c(Cl)ccc3[nH]nc(Cl)c23)nc2c3c(nc(OC[C@@]45CCCN4C[C@H](F)C5)nc13)N1CCCC[C@H]1CO2 (atropisomer, axis not shown) [Example 84, (7S)-12-(3,5-dichloro-1H-indazol-4-yl)-13-fluoro-16-[[(2R,8S)-2-fluoro-1,2,3,5,6,7-hexahydropyrrolizin-8-yl]methoxy]-9-oxa-2,11,15,17-tetrazatetracyclo[8.7.1.02, 7.014,18]octadeca-1 (17),10 (18),11,13,15-pentaene] | – | > 3000 nM | 48 nM | 54.5 nM | – | > 3000 nM | > 3000 nM | –
3 | Nc1nc2c(-c3nc4c5c(nc(OC[C@@]67CCCN6C[C@H](F)C7)nc5c3F)N3CCCC[C@H]3CO4)ccc(F)c2s1 [Example 40, 7-fluoro-4-[(8aS)-4-fluoro-2-{[(2R,7aS)-2-fluorotetrahydro-1H-pyrrolizin-7a(5H)-yl]methoxy}-8,8a,9,10,11,12-hexahydro-7-oxa-1,3,6,12a-tetraazabenzo[4,5]cyclohepta[1,2,3-de]naphthalen-5-yl]-1,3-benzothiazol-2-amine] | > 3000 nM | – | 28.2 nM | 30.1 nM | > 3000 nM | – | – | > 3000 nM
4 | Cc1cc(N)nc(-c2nc3c4c(nc(OC[C@@]56CCCN5C[C@H](F)C6)nc4c2F)N2CCCC[C@H]2CO3)c1C(F)(F)F [Example 43, 6-[(8aS)-4-fluoro-2-{[(2R,7aS)-2-fluorotetrahydro-1H-pyrrolizin-7a(5H)-yl]methoxy}-8,8a,9,10,11,12-hexahydro-7-oxa-1,3,6,12a-tetraazabenzo[4,5]cyclohepta[1,2,3-de]naphthalen-5-yl]-4-methyl-5-(trifluoromethyl)pyridin-2-amine] | > 3000 nM | – | 12.7 nM | 16.3 nM | > 3000 nM | – | – | 2120 nM
5 | C#Cc1c(F)ccc2cc(O)cc(-c3cc4c5c(nc(OC[C@@]67CCCN6C[C@H](F)C7)nc5c3F)N3CCCC[C@H]3CO4)c12 [Example 45, 5-ethynyl-6-fluoro-4-[(8aS)-4-fluoro-2-{[(2R,7aS)-2-fluorotetrahydro-1H-pyrrolizin-7a(5H)-yl]methoxy}-8,8a,9,10,11,12-hexahydropyrido[2′,1′:3,4][1,4]oxazepino[5,6,7-de]quinazolin-5-yl]naphthalen-2-ol] | 621 nM | – | 2.33 nM | 3.28 nM | 321 nM | – | – | 361 nM
6 | C#Cc1c(F)ccc2cc(O)cc(-c3nc4c5c(nc(OC[C@@]67CCCN6C[C@H](F)C7)nc5c3F)N[C@@H](C)CO4)c12 [Example 46, 5-ethynyl-6-fluoro-4-[(9S)-4-fluoro-2-{[(2R,7aS)-2-fluorotetrahydro-1H-pyrrolizin-7a(5H)-yl]methoxy}-9-methyl-9,10-dihydro-8H-7-oxa-1,3,6,10-tetraazacyclohepta[1,2,3-de]naphthalen-5-yl]naphthalen-2-ol] | 193 nM | – | 1.71 nM | 2.1 nM | 414 nM | – | – | 74.8 nM
7 | C#Cc1c(F)ccc2cc(O)cc(-c3nc4c5c(nc(OC[C@@]67CCCN6C[C@H](F)C7)nc5c3F)N(C)[C@@H](C)CO4)c12 [Example 50, 5-ethynyl-6-fluoro-4-[(9S)-4-fluoro-2-{[(2R,7aS)-2-fluorotetrahydro-1H-pyrrolizin-7a(5H)-yl]methoxy}-9,10-dimethyl-9,10-dihydro-8H-7-oxa-1,3,6,10-tetraazacyclohepta[1,2,3-de]naphthalen-5-yl]naphthalen-2-ol] | 28.4 nM | – | 1.99 nM | 1.71 nM | 25.7 nM | – | – | 8.94 nM
8 | C#Cc1c(F)ccc2cc(O)cc(-c3nc4c5c(nc(OC[C@@]67CCCN6C/C(=C\F)C7)nc5c3F)N3CCCC[C@H]3CO4)c12 [Example 52, 5-ethynyl-6-fluoro-4-[(8aS)-4-fluoro-2-{[(2Z,7aS)-2-(fluoromethylidene)tetrahydro-1H-pyrrolizin-7a(5H)-yl]methoxy}-8,8a,9,10,11,12-hexahydro-7-oxa-1,3,6,12a-tetraazabenzo[4,5]cyclohepta[1,2,3-de]naphthalen-5-yl]naphthalen-2-ol] | 7.7 nM | – | 2.22 nM | 2.26 nM | 9.2 nM | – | – | 1.75 nM
9 | C#Cc1c(F)ccc2cc(O)cc(-c3nc4c5c(nc(OC[C@@]67CCCN6C[C@H](F)C7)nc5c3F)N3[C@@H](COC[C@@H]3C)CO4)c12 [Example 59, 5-ethynyl-6-fluoro-4-[(8aS,12S)-4-fluoro-2-{[(2R,7aS)-2-fluorotetrahydro-1H-pyrrolizin-7a(5H)-yl]methoxy}-12-methyl-8a,9,11,12-tetrahydro-8H-7,10-dioxa-1,3,6,12a-tetraazabenzo[4,5]cyclohepta[1,2,3-de]naphthalen-5-yl]naphthalen-2-ol] | 70.6 nM | – | 3.08 nM | 2.66 nM | 77.2 nM | – | – | 12.4 nM
10 | C#Cc1c(F)ccc2cc(O)cc(-c3nc4c5c(nc(OC[C@@]67CCCN6C[C@H](F)C7)nc5c3F)N(Cc3ccccc3)[C@@H](C)CO4)c12 [Example 74, 4-[(9S)-10-benzyl-4-fluoro-2-{[(2R,7aS)-2-fluorotetrahydro-1H-pyrrolizin-7a(5H)-yl]methoxy}-9-methyl-9,10-dihydro-8H-7-oxa-1,3,6,10-tetraazacyclohepta[1,2,3-de]naphthalen-5-yl]-5-ethynyl-6-fluoronaphthalen-2-ol] | 1480 nM | – | 2.81 nM | 4 nM | 348 nM | – | – | 480 nM
11 | CCc1c(F)ccc2cc(O)cc(-c3nc4c5c(nc(OC[C@@]67CCCN6C[C@H](F)C7)nc5c3F)N3CCCC[C@H]3C(C)O4)c12 (stereo partly drawn) [Example 75, 5-ethyl-6-fluoro-4-((5aS)-1-fluoro-11-(((2R,7aS)-2-fluorotetrahydro-1H-pyrrolizin-7a(5H)-yl)methoxy)-5-methyl-5,5a,6,7,8,9-hexahydro-4-oxa-3,9a, 10,12-tetraazabenzo[4,5]cyclohepta[1,2,3-de]naphthalen-2-yl)naphthalen-2-ol] | 1620 nM | – | 1.6 nM | 1.76 nM | 702 nM | – | – | 349 nM
12 | Fc1c(-c2c(Cl)ccc3[nH]ncc23)nc2c3c(nc(OC[C@@]45CCCN4C[C@H](F)C5)nc13)N1CCCC[C@H]1CO2 [Example 78, (7S)-12-(5-chloro-1H-indazol-4-yl)-13-fluoro-16-[[(2R,8S)-2-fluoro-1,2,3,5,6,7-hexahydropyrrolizin-8-yl]methoxy]-9-oxa-2,11,15,17-tetrazatetracyclo [8.7.1.02,7.014,18]octadeca-1 (17),10 (18),11,13,15-pentaene] | > 3000 nM | – | 51.9 nM | 40.2 nM | > 3000 nM | – | – | > 3000 nM
13 | CC[C@H]1COc2nc(-c3cc(O)cc4ccc(F)c(F)c34)c(F)c3nc(OC[C@@]45CCCN4C[C@H](F)C5)nc(c23)N1C [Example 115, 4-[(9S)-9-ethyl-4-fluoro-2-{[(2R,7aS)-2-fluorotetrahydro-1H-pyrrolizin-7a(5H)-yl]methoxy}-10-methyl-9,10-dihydro-8H-7-oxa-1,3,6,10-tetraazacyclohepta[1,2,3-de]naphthalen-5-yl]-5,6-difluoronaphthalen-2-ol] | 352 nM | – | 2.4 nM | 2.61 nM | – | – | – | 106 nM
14 | CC[C@H]1COc2nc(-c3cccc4sc(N)c(C#N)c34)c(F)c3nc(OC[C@@]45CCCN4C[C@H](F)C5)nc(c23)N1C [Example 116, 2-amino-4-[(9S)-9-ethyl-4-fluoro-2-{[(2R,7aS)-2-fluorotetrahydro-1H-pyrrolizin-7a(5H)-yl]methoxy}-10-methyl-9,10-dihydro-8H-7-oxa-1,3,6,10-tetraazacyclohepta[1,2,3-de]naphthalen-5-yl]-1-benzothiophene-3-carbonitrile] | > 3000 nM | – | 6.41 nM | 14.2 nM | – | – | – | 760 nM
15 | CCc1c(F)ccc2cc(O)cc(-c3nc4c5c(nc(OC[C@@]67CCCN6C[C@H](F)C7)nc5c3F)N3CCC[C@@](C)(O)[C@H]3CO4)c12 [compound 3, (8aR,9R)-5-(8-ethyl-7-fluoro-3-hydroxynaphthalen-1-yl)-4-fluoro-2-{[(2R,7aS)-2-fluorotetrahydro-1H-pyrrolizin-7a(5H)-yl]methoxy}-9-methyl-8,8a,9,10,11,12-hexahydro-7-oxa-1,3,6,12a-tetraazabenzo[4,5]cyclohepta[1,2,3-de]naphthalen-9-ol] | 57.5 nM | – | 1.85 nM | 1.66 nM | – | – | – | 15.5 nM
